According to ChEMBL document CHEMBL1144127, “Montadial A, a cytotoxic metabolite from Bondarzewia montana” (J Nat Prod, 1999):
The source made the active and inactive calls.

What was measured:
HL-60 = test: Cytotoxicity against human HL-60 cells at 5 ug/mL; type: functional, cell-based
L1210 = test: Cytotoxicity against mouse L1210 cells at 10 ug/mL; type: functional, cell-based
Setaria italica = test: Phytotoxicity against Setaria italica at 50 ug/disk; type: functional, organism-based

Measured: Activity

C/C(C=O)=C\Cc1cc(C=O)cc(O)c1O
active: all assays above
